Results taken from ChEMBL document CHEMBL1208759, “A newly synthesized, potent tyrosinase inhibitor: 5-(6-hydroxy-2-naphthyl)-1,2,3-benzenetriol” (Bioorg Med Chem Lett, 2010).

Legend:
[1] = molecular target: T1, Tyrosinase (Mus musculus) (UniProt P11344); experiment: Inhibition of tyrosinase activity in mouse B16 cells at 25 uM; format: cell-based
T1 sequence (whole entry): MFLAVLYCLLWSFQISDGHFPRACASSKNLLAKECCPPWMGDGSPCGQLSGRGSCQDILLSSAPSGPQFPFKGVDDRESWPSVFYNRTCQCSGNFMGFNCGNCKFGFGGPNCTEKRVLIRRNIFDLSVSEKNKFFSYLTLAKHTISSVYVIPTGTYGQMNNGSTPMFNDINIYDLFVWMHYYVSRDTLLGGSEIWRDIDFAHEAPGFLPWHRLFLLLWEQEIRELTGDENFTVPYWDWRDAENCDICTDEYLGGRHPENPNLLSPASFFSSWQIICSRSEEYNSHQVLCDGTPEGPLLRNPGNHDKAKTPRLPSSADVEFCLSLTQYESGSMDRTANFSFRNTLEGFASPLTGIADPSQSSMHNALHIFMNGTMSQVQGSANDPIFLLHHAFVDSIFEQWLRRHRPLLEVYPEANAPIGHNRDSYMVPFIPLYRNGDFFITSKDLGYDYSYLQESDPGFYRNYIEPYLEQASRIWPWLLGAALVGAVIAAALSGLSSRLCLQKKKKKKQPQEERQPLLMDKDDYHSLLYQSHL

[2] = test system: B16; experiment: Antimelanogenic activity in mouse B16 cells assessed as inhibition of melanin content at 100 uM relative to alpha-MSH; format: functional
[3] = molecular target: T2, Tyrosinase (Agaricus bisporus) (UniProt O42713); conditions: 5 uM
T2 sequence (whole entry): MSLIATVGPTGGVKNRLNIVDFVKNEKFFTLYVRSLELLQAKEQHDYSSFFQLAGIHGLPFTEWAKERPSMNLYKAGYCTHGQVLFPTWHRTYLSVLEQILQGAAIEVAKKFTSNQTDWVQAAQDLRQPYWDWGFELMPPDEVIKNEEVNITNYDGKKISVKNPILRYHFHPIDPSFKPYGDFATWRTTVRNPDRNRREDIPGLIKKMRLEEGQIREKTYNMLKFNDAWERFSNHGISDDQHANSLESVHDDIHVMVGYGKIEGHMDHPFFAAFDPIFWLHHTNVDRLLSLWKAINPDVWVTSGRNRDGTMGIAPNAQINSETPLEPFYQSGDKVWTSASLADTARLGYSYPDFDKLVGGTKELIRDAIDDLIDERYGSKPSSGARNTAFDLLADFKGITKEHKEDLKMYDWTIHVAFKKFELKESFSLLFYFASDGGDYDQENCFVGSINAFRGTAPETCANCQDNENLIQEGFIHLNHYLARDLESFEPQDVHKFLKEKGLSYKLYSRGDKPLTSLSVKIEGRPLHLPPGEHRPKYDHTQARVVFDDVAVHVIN
Description: Inhibition of mushroom tyrosinase at 5 uM

[4] = test system: B16; experiment: Antimelanogenic activity in mouse B16 cells assessed as inhibition of melanin content at 25 uM relative to alpha-MSH; format: functional
[5] = test system: B16; experiment: Antimelanogenic activity in mouse B16 cells assessed as inhibition of melanin content at 400 uM relative to alpha-MSH; format: functional
[6] = molecular target: T2, Tyrosinase (Agaricus bisporus); conditions: 0.5 uM
Description: Inhibition of mushroom tyrosinase at 0.5 uM

[7] = molecular target: T2, Tyrosinase (Agaricus bisporus); conditions: 1 uM
Description: Inhibition of mushroom tyrosinase at 1 uM

[8] = molecular target: T2, Tyrosinase (Agaricus bisporus); conditions: 2.5 uM
Description: Inhibition of mushroom tyrosinase at 2.5 uM

[9] = molecular target: T1, Tyrosinase (Mus musculus); experiment: Inhibition of tyrosinase activity in mouse B16 cells at 400 uM; format: cell-based
[10] = Cytotoxicity against mouse B16 cells assessed as cell viability at 25 uM after 24 hrs by MTT assay; format: cell-based; conditions: read-out: Activity
[11] = molecular target: T1, Tyrosinase (Mus musculus); experiment: Inhibition of tyrosinase activity in mouse B16 cells at 100 uM; format: cell-based
[12] = Cytotoxicity against mouse B16 cells assessed as cell viability at 100 uM after 24 hrs by MTT assay; format: cell-based; conditions: read-out: Activity
[13] = Cytotoxicity against mouse B16 cells assessed as cell viability at 50 uM after 24 hrs by MTT assay; format: cell-based; conditions: read-out: Activity

inhibition [1]: 26.2%
inhibition [3]: 86.1%
inhibition [6]: 7.53%
inhibition [7]: 18.7%
inhibition [8]: 39.4%
inhibition [9]: 2.05%
inhibition [11]: 14.1%
Structure (SMILES): Oc1ccc2cc(-c3cc(O)c(O)c(O)c3)ccc2c1
inhibition at 100 µM [2]: 45.8%
inhibition at 25 µM [4]: 50.7%
inhibition at 400 µM [5]: 34.7%
viability at 24 h, 25 µM [10]: 98.3%
viability at 24 h, 100 µM [12]: 95.1%
viability at 24 h, 50 µM [13]: 98.1%
